Series [1] concerns human promyelocytic leukemia (HL-60). Briefly: Growth inhibition of human cell line HL-60. As to conditions: for GI50: read-out: GI50 (μM) HL60, human cell line HL60.
The subject of series [2] is human lymphocyte (CRL8155). Kind of series: Growth inhibition of human cell line CRL8155. As to conditions: for GI50: read-out: GI50 (μM) CRL8155, human cell line CRL8155.
For series [3], the target named is AblKD (Homo sapiens (Human), UniProt P00519). Briefly: Tyrosine kinase IC50, AblKD. As to conditions: Table 9. The class given is biochemical.
Series [4] is described as follows: Blood levels after oral gavage dosing of mice (LC-MS).
The target of series [5] is SrcKD (Homo sapiens (Human), UniProt P12931). Kind of series: Tyrosine kinase IC50, SrcKD. The class given is biochemical.
For series [6], the system named is human fibroblast. Briefly: Human fibroblast replication / cytotoxicity (Alamar blue). The format is cell-based. (In general: The colour change of resazurin is a common sign of viable cells or microbes.)
Series [7] relates to C. parvum. Briefly: Immunosuppressed (SCID-beige) mouse C. parvum model. The class given is in vivo, Cryptosporidium parvum. As to conditions: SCID-beige mice; oral gavage once a day, days 3-7 and 10-14; 29 and 150 at 50 mg/kg/day, Paromomycin 2 g/kg/day. The protocol:
Shown are mean of the parasite numbers detected in 25 mg of stool from each mouse, by qRT-PCR.

Series [8] deals with PfCDPK4 (Plasmodium falciparum (isolate 3D7), UniProt Q8IBS5). Kind of series: biochemical.
Series [9] deals with CpCDPK1 (Cryptosporidium parvum (strain Iowa II), UniProt A3FQ16). Kind of series: biochemical. The class given is biochemical.
Series [10] addresses Src3D (Homo sapiens (Human), UniProt P12931). Kind of series: biochemical.
Series [11] has as its system P. berghei expressing GFP. Kind of series: P. berghei transmission from treated mice to A. stephensi. As to conditions: mice treated i.p., Compound 29 at 10 mg/kg; mosquitoes fed 30 minutes after dosing.
Series [12] relates to colorectal carcinoma (HC 2998). Kind of series: Growth inhibition of human cell line HC 2998. As to conditions: for GI50: read-out: GI50 (μM) HCC2998, human cell line HCC2998.
Series [13] relates to glioma derived (SF539). Briefly: Growth inhibition of human cell line SF539. As to conditions: for GI50: read-out: GI50 (μM) SF539, human cell line SF539.
Series [14] concerns the target SRC (Homo sapiens (Human), UniProt P12931).
The target in series [15] is HckKD (Homo sapiens (Human), UniProt P08631). Briefly: Tyrosine kinase IC50, HckKD. As to conditions: Table 9. The format is biochemical.
Series [16] addresses PfCDPK1 (Plasmodium falciparum (isolate 3D7), UniProt P62344). Briefly: biochemical.
Series [17] is described as follows: Solubility in buffers of various pH. The class given is physicochemical. As to conditions: buffer.
Series [18] is described as follows: in vivo. As to conditions: mouse, ip.
The mark [19] stands for this setting: Table 8, read-out: IC50 (μM) CpCDPK1.
The mark [20] stands for this setting: pH 6.5, aqueous buffer, read-out: Experimental Solubility pH 6.5.

Results on 13 compounds are retold here after US9765037B2, “Compositions and methods for treating toxoplasmosis, cryptosporidiosis, and other apicomplexan protozoan related diseases” (University of Washington Through its Center for …, priority 2010, dated 2017).

Molecules are shown by their SMILES. ≈ marks a conversion by molar mass, not a printed value. Read-outs that look alike come from different tables or passages of the source.

For orientation: IC50 means the concentration needed to halve the response being measured. A word on the Cmax: it is the peak of the concentration-time curve. The Tmax is the time from dosing to the highest level. For orientation: EC50 means the concentration at which the effect is half-maximal. Turning to `CCOc1ccc2cc(-c3nn(CC4CCN(C)CC4)c4ncnc(N)c34)ccc2c1` [Compound 150, 3-(6-ethoxynaphthalen-2-yl)-1-((1-methylpiperidin-4-yl)methyl)-1H-pyrazolo[3,4-d]pyrimidin-4-amine], in [1], the “Cell Toxicity HL60, % at 10 μM” value is recorded as <30% at 10 μM and the “Cell Toxicity HL60, % at 30 μM” value was <30% at 30 μM. In addition, in [2], the “Cell Toxicity CRL8155, % at 10 μM” value is <30% at 10 μM and the “Cell Toxicity CRL8155, % at 30 μM” value is reported as <30% at 30 μM. Moreover, the IC50 in series [3] is > 3 µM. Also, the “Blood level, First Peak” value in [4] (mice, 40 mg/kg oral gavage 3x daily for 4 days, 1 hr after first dose, mean±SD, N=3) came out at 2.1 ± 1.2 µM. Further, the “Blood level, Fourth D4 Peak” value in [4] (mice, 40 mg/kg oral gavage 3x daily for 4 days, 1 hr after third dose of d4, mean±SD, N=3) turned out to be 8.9 ± 3.4 µM. Besides, the “Blood level, First Trough” value in series [4] (mice, 40 mg/kg oral gavage 3x daily for 4 days, 17 hours after dosing, beginning of d2, mean±SD, N=3) was 2.0 ± 1.6 µM. Besides, in series [4] (mouse, in vivo, po, 10 mg/kg), the Cmax came to 0.8 µM and the Tmax was 2.15 h. Moreover, the concentration at 17 h in [4] (mouse, in vivo, po, 40 mg/kg) came to 6.3 ± 1.8 µM. Also, the IC50 in [5] (Table 9) is > 10 µM. In addition, in series [6], the “Observed HFF Toxicity (T at concentration)” value was “T at 25 μM”. For the same compound, the “parasites in stool (qRT-PCR) at the end of treatment” value in [7] is listed as “not detected”. Further, in series [8], the EC50 stood at 0.0337 µM and the IC50 was determined as 0.01 µM.

`CC(C)n1nc(-c2cc3c(Cl)cccc3[nH]2)c2c(N)ncnc21` [Compound 26, 3-(4-chloro-1H-indol-2-yl)-1-isopropyl-1H-pyrazolo[3,4-d]pyrimidin-4-amine]: in series [1], the “Cell Toxicity HL60, % at 10 μM” value was found to be 45% toxicity at. The “Cell Toxicity CRL8155, % at 10 μM” value in series [2] turned out to be 38% toxicity at. In addition, the IC50 in series [9] (setting [19]) amounted to 0.0162 µM; in [10] it was 1.24 µM. This compound also returned an EC50 in series [8] of 0.544 µM.

Regarding `CC(C)(C)n1nc(-c2ccc3ccccc3c2)c2c(N)ncnc21` [NA-PP2, reference compound], the “formation of oocysts in A. stephensi fed on treated mice” value in series [11] was “hundreds of oocysts per mosquito”.

On to `Nc1ncnc2c1c(-c1cnc3ccccc3c1)nn2CC1CCNCC1` [Compound 30, 1-(piperidin-4-ylmethyl)-3-(quinolin-3-yl)-1H-pyrazolo[3,4-d]pyrimidin-4-amine], for which the “Cell Toxicity HL60, % at 10 μM” value in [1] is on record as <30% at 10 μM. In addition, the “Cell Toxicity HL60, % at 30 μM” value in series [1] is reported as <30% at 30 μM. For the same compound, the “Cell Toxicity CRL8155, % at 10 μM” value in [2] is reported as <30% at 10 μM. In series [2], the “Cell Toxicity CRL8155, % at 30 μM” value is on record as <30% at 30 μM. For the same compound, in [12], the “Cell Toxicity HCC2998, % at 10 μM” value is on record as <30% at 10 μM. In addition, the IC50 in [3] was > 20 µM; in [9] (setting [19]) it was 0.0837 µM; in series [5] (Table 9), > 20 µM. In addition, the “Cell Toxicity SF539, % at 10 μM” value in [13] is <30% at 10 μM.

By GI50 is commonly meant the concentration giving 50% growth inhibition. On to `CC(C)(C)n1nc(-c2cccc3ccccc23)c2c(N)ncnc21` [Compound 1, 1-tert-butyl-3-(naphthalen-1-yl)-1H-pyrazolo[3,4-d]pyrimidin-4-amine], for which the GI50 in series [1], in [2], in [12] and in [13] was > 10 µM each time. Further, the IC50 in series [9] (read-out: IC50 (μM) CpCDPK1) was > 3 µM; in [14] (read-out: IC50 (μM) Src), 1.3 µM; in [5], 1.3 µM. Also, in series [14], the “inhibition of SRC (in words)” value is given as “do not potently inhibit”.

As a reminder, the solubility is the dissolved amount per volume that the medium holds. Regarding `CCCCOc1ccc2cc(-c3nn(CC4CCNCC4)c4ncnc(N)c34)ccc2c1` [Compound 35, 3-(6-butoxynaphthalen-2-yl)-1-(piperidin-4-ylmethyl)-1H-pyrazolo[3,4-d]pyrimidin-4-amine], the “Cell Toxicity HL60, % at 10 μM” value in series [1] is on record as <30% at 10 μM. Moreover, the figures for the IC50 in series [15] and in [9] (setting [19]) were > 10 µM and 0.0044 µM, respectively. Moreover, in series [2], the “Cell Toxicity CRL8155, % at 10 μM” value is listed as <30% at 10 μM. In addition, the “Cell Toxicity HCC2998, % at 10 μM” value in series [12] is given as <30% at 10 μM. The EC50 in series [16] was 0.151 µM; in series [8], 0.0312 µM. The “Cell Toxicity SF539, % at 10 μM” value in series [13] is <30% at 10 μM. For the same compound, the solubility in [17] (setting [20]) was 45 µM (≈ 19.4 µg/mL). In addition, the “Observed HFF Toxicity (T at concentration)” value in series [6] lay in the range of 25 to 100 µM.

Consider `Nc1ncnc2c1cnn2CC1CCNCC1` [Compound 99], for which the IC50 in series [3] and in series [5] (Table 9) was > 10 µM throughout.

On to `CC(C)(C)n1nc(Cc2cccc3ccccc23)c2c(N)ncnc21` [Compound 5d, 1-tert-butyl-3-(naphthalen-1-ylmethyl)-1H-pyrazolo[3,4-d]pyrimidin-4-amine], for which, in series [1], the “Cell Toxicity HL60, % at 10 μM” value was <30% at 10 μM. Moreover, the GI50 in [1], in series [2], in series [12] and in series [13] was > 10 µM in each case. Also, the “Cell Toxicity CRL8155, % at 10 μM” value in [2] is reported as <30% at 10 μM. For the same compound, in series [12], the “Cell Toxicity HCC2998, % at 10 μM” value is on record as <30% at 10 μM. The values for the IC50 in series [3], in series [9] (setting [19]) and in series [9] (read-out: CpCDPK1 IC50) were 7.7 µM, 0.144 µM and 0.14 µM, respectively. The “Cell Toxicity SF539, % at 10 μM” value in [13] was <30% at 10 μM.

Consider `CC(C)(C)n1nc(-c2ccccc2)c2c(N)ncnc21` [Compound 140], for which the EC50 stood at 0.337 µM in series [16] and 0.399 µM in series [8]. The IC50 in series [3] is 0.636 µM. Besides, the solubility in series [17] (setting [20]) was 22 µM (≈ 5.88 µg/mL).

Consider `CC(C)(C)n1ncc2c(N)ncnc21` [Compound 123], for which the IC50 in series [3] and in [5] (Table 9) was > 10 µM in each case.

Turning to `CC(C)n1nc(-c2cc3ccccc3[nH]2)c2c(N)ncnc21` [Compound 24, 3-(1H-indol-2-yl)-1-isopropyl-1H-pyrazolo[3,4-d]pyrimidin-4-amine], the EC50 is 0.471 µM in series [16] and 0.337 µM in series [8]. Also, the IC50 was determined as 0.0704 µM in [9] (setting [19]) and 1.45 µM in [10].

The AUC is concentration integrated over time. Low values mean low exposure, high ones high exposure. As to `COc1ccc2cc(-c3nn(CC4CCNCC4)c4ncnc(N)c34)ccc2c1` [Compound 28, 3-(6-methoxynaphthalen-2-yl)-1-(piperidin-4-ylmethyl)-1H-pyrazolo[3,4-d]pyrimidin-4-amine], the “Cell Toxicity HL60, % at 10 μM” value in series [1] was <30% at 10 μM. Besides, the “Cell Toxicity HL60, % at 30 μM” value in series [1] is <30% at 30 μM. Also, the IC50 is > 10 µM in [15], > 20 µM in series [3], 0.0023 µM in series [9] (setting [19]) and > 20 µM in [5] (Table 9). Also, in series [2], the “Cell Toxicity CRL8155, % at 10 μM” value is <30% at 10 μM. For the same compound, in series [2], the “Cell Toxicity CRL8155, % at 30 μM” value is recorded as <30% at 30 μM. Besides, the “Cell Toxicity HCC2998, % at 10 μM” value in [12] is listed as <30% at 10 μM. Further, the EC50 stood at 0.739 µM in [16] and 0.0188 µM in series [8]. In [13], the “Cell Toxicity SF539, % at 10 μM” value is on record as <30% at 10 μM. Besides, the area under the curve (AUC) in series [4] (mouse, in vivo, po) was 20.5 µM·h; in [18], 151 µM·h. In addition, the Cmax in series [4] (mouse, in vivo, po) is 4.41 µM; in series [18] it was 84.1 µM. In addition, the Tmax in series [4] (mouse, in vivo, po) is 2.67 h; in series [18], 0.667 h. Further, the solubility in [17] (aqueous buffer, pH 2.0, read-out: Experimental Solubility pH 2.0) stood at 49 µM (≈ 19 µg/mL); in series [17] (setting [20]), 58 µM (≈ 22.5 µg/mL); in series [17] (pH 7.4, aqueous buffer, read-out: Experimental Solubility pH 7.4) it was 56 µM (≈ 21.8 µg/mL).

As for `NC[C@@H]1O[C@H](O[C@H]2[C@@H](O)[C@H](O[C@@H]3[C@@H](O)[C@H](N)C[C@H](N)[C@H]3O[C@H]3O[C@H](CO)[C@@H](O)[C@H](O)[C@H]3N)O[C@@H]2CO)[C@H](N)[C@@H](O)[C@@H]1O` [Paromomycin, reference compound], in series [7], the “parasite burden rebound after treatment” value is listed as “quickly rebounded” and the “parasites in stool (qRT-PCR) at the end of treatment” value is “not detected”.
